Measurements: ChEMBL document CHEMBL1944620, “Discovery of non-oxime reactivators using an in silico pharmacophore model of oxime reactivators of OP-inhibited acetylcholinesterase” (Eur J Med Chem, 2012)

Key:
Anguilliformes [1] = experiment: Reactivation of DFP-inhibited eel AChE assessed as reactivation efficacy by spectrophotometry
Anguilliformes [2] = experiment: Reactivation of DFP-inhibited eel AChE by spectrophotometry relative to 2-PAM

| SMILES | Activity (Anguilliformes [1]) [mmol⁻¹ min⁻¹] | Ratio (Anguilliformes [2]) |
| --- | --- | --- |
| COc1ccc(/C=C(/NC(=O)c2ccccc2)C(=O)N/N=C\c2cc(Br)c(OCc3ccccc3Cl)c(OC)c2)cc1 | 673 |  |
| C[n+]1ccccc1C=NO | 2.61 |  |
| CCOC(=O)c1cc(C#N)c(C)nc1N1CCN(S(=O)(=O)c2ccccc2)CC1 | 24.7 |  |
| O=[N+]([O-])c1ccc(OCC(O)CNCCNc2nccc(C(F)(F)F)n2)cc1 (centres undefined) | 212 |  |
| S=C(NC1CCCCCCC1)N1CCCN(c2nc3ccc(Cl)cc3s2)CC1 | 26.7 |  |
| O=C1CCC(=O)N1c1ccc(S(=O)(=O)N2CCN(c3nccc(C(F)(F)F)n3)CC2)cc1 | 48.4 |  |
| CC(C)(C)OC(=O)N1CCCN(C(=S)Nc2ccccc2N2CCOCC2)CC1 | 65.9 |  |
| OC(CNCCNc1nccc(C(F)(F)F)n1)COc1ccccc1 (centres undefined) | 26.3 |  |
| OC(COc1ccc(Cl)c(Cl)c1)CN1CCN(c2nc3ccc(Cl)cc3s2)CC1 (centres undefined) | 25.1 |  |
| OC(CNCCNc1ccc(C(F)(F)F)cn1)COc1ccccc1 (centres undefined) | 20.6 |  |
| OC(CNCCNc1nccc(C(F)(F)F)n1)Cn1ccc2ccccc21 (centres undefined) | 57 |  |
| O=[N+]([O-])c1ccc(N2CCCN(C(=S)Nc3ccc(F)cc3Br)CC2)nc1 | 10.7 | < 10 |
| COc1cc(C(=O)Oc2c(Br)cc(Br)cc2/C=N/NC(=O)C(O)(c2ccccc2)c2ccccc2)cc(OC)c1OC | 39.9 |  |
| OC(CNCCNc1nccc(C(F)(F)F)n1)CSc1ccccc1 (centres undefined) | 91.1 |  |
| COc1ccc(CCNCC(O)Cn2ccc3ccccc32)cc1OC (centres undefined) | 79.6 |  |
| O=C(Nc1cc(F)cc(F)c1)N1CCCN(c2ncc(C(F)(F)F)cc2Cl)CC1 | 80.7 |  |
| COc1ccc(C2NCCc3c2[nH]c2ccc(OCc4ccccc4)cc32)cc1COc1c(Br)cc(Br)cc1Br (centres undefined) | 102 |  |
| OC(CNCCNc1nccc(C(F)(F)F)n1)CSc1ccc(F)cc1 (centres undefined) | 30.2 |  |

| SMILES | Activity (Anguilliformes [1]) [mmol⁻¹ min⁻¹] | Ratio (Anguilliformes [2]) |
| --- | --- | --- |
| Cc1nc(-c2ccccn2)nc(N2CCN(CCO)CC2)c1Cl | 13.9 | < 10 |
| CCOC(=O)c1cc(-c2nc(C(=O)NN)cs2)c(C)nc1C(F)(F)F | 156 |  |
| OC(CNCCNc1nccc(C(F)(F)F)n1)COc1ccc(Cl)c(Cl)c1 (centres undefined) | 75.2 |  |
| COc1cc(/C=N/NC(=O)c2ccccc2NC(C)=O)cc(Br)c1OCc1ccccc1Cl | 33.1 |  |
| COc1cccc(C(=O)Oc2c(Br)cc(Br)cc2/C=N/NC(=O)CNC(=O)c2ccc(OC)c(OC)c2)c1 | 56.2 |  |
| FC(F)(F)c1ccnc(Oc2ccc(/C=N/NC(=S)Nc3cc(Cl)ccc3Cl)cc2)n1 | 53.6 |  |
| OC(CNCCNc1ccc(C(F)(F)F)cn1)CSc1ccc(F)cc1 (centres undefined) | 71.6 |  |
| COc1cc(/C=N/NC(=O)c2cnc3ccccc3c2)cc(Br)c1OCc1ccccc1Cl | 13 | < 10 |
| FC(F)(F)c1ccnc(NCCNC(=S)NCc2ccco2)n1 | 11 | < 10 |
| CC(CO)(CO)NCC(O)COc1ccc(OC(F)(F)F)cc1 (centres undefined) | 73 |  |
| O=C(Nc1ccc(Cl)cc1)N1CCCN(c2ccc(C(F)(F)F)cc2[N+](=O)[O-])CC1 | 101 |  |
| OC1CCN(CC(O)COc2ccc(Cl)c(Cl)c2)CC1 (centres undefined) | 34.3 |  |
| Cc1cc(C)cc(NC(=O)N2CCCN(c3ncccc3[N+](=O)[O-])CC2)c1 | 77.2 |  |
| OC(CNCCNc1nccc(C(F)(F)F)n1)COc1ccc(OC(F)(F)F)cc1 (centres undefined) | 34.4 |  |
| COc1cc(/C=N/NC(=O)c2ccc(N)cc2)cc(Br)c1OCc1ccccc1Cl | 214 |  |
| Cc1ccc(S(=O)(=O)NC(=O)NCCCNC(=O)OC(C)(C)C)cc1 | 76 |  |
| OC(CNCCNc1nccc(C(F)(F)F)n1)COc1cccc(C(F)(F)F)c1 (centres undefined) | 38 |  |
